Source: patent US20080194545A1, “ANTIMICROBIAL COMPOSITIONS AND METHODS OF USE” (TRIUS THERAPEUTICS, priority 2007, published 2008)
pIC50: −log10 of the molar value.

Target: S. Aureus MetRS (Staphylococcus aureus, UniProt Q5HII6)
Experiment: MetRS inhibition (coupling of radiolabeled methionine to tRNAMet, TCA-precipitable counts)
Assay type: biochemical
Conditions: purified MetRS enzyme
Text: The inhibition of MetRS activity may be monitored through use of in vitro bio-chemical assays through use of purified MetRS protein. Synthesis of a MetRS polypeptide can readily be accomplished through use of any of the various art-known techniques. For instance, a MetRS polypeptide can be synthesized chemically in vitro or recombinant DNA methods which are well known to those skilled in the art can be used to construct expression vectors containing MetRS coding sequences, and appropriate transcriptional/translational control signals. These methods include, for example, in vitro recombinant DNA techniques, synthetic techniques and in vivo recombination/genetic recombination. Alternatively, RNA capable of encoding target gene protein sequences can be chemically synthesized through use of synthesizers, for example.
The compounds of the present invention may also be evaluated for the ability to inhibit MetRS activity through use of known methods that measure the MetRS-dependent coupling of methionine to its cognate tRNA. In the assay, radiolabeled methionine, tRNA^Met and purified MetRS enzyme are incubated under appropriate conditions in the presence and absence of test compound and the amount of TCA-precipitable counts, which reflects the amount of methionine coupled to tRNA^Met, is determined.

pIC50 | SMILES
> 7.30 | COc1cc(Cl)c(Oc2cc(NCc3nc4ccccc4[nH]3)nc(N3CCN(CCCN4CCOCC4)CC3)n2)cc1OC [Compound 6.94]
> 7.30 | COc1ccc(Oc2cc(NNc3cc(=O)c4ccccc4[nH]3)nc(N(C)C)n2)c(Cl)c1 [Compound 6.06]
> 7.30 | COc1cc(Cl)c(Oc2cc(NCc3nc4ccccc4[nH]3)nc(N3CCNC(=O)C3)n2)cc1OC [Compound 6.56]
> 7.30 | CCN(C(C)=O)C1CCN(c2nc(NCc3nc4ccccc4[nH]3)cc(Oc3ccc(OC)cc3Cl)n2)C1 (stereo not drawn) [Compound 6.62]
> 7.30 | COc1cc(Cl)c(Oc2cc(NCc3nc4ccccc4[nH]3)nc(N3CCN(c4nccs4)CC3)n2)cc1OC [Compound 6.107]
> 7.30 | CC(=O)N1CCN(c2nc(NCc3nc4ccccc4[nH]3)cc(Oc3ccc4ncccc4c3Cl)n2)CC1 [Compound 6.150]
> 7.30 | COc1cc(Cl)c(Oc2cc(NCc3nc4ccccc4[nH]3)nc(N3CCN(c4cnccn4)CC3)n2)cc1OC [Compound 6.93]
> 7.30 | O=C1CN(c2nc(NCc3nc4ccccc4[nH]3)cc(Oc3ccc(Cl)cc3Cl)n2)CCN1 [Compound 6.23]
> 7.30 | COc1ccc(Oc2cc(NCc3nc4ccccc4[nH]3)nc(N3CCN(C(=O)C4CC4)CC3)n2)c(Cl)c1 [Compound 6.48]
> 7.30 | COc1cc(Cl)c(Oc2cc(NCc3nc4ccccc4[nH]3)nc(N3CCN(C(=O)N(C)C)CC3)n2)cc1OC [Compound 6.89]
> 7.30 | COc1cc(Cl)c(Oc2cc(NCc3nc4ccccc4[nH]3)nc(N(C)C)n2)cc1OC [Compound 6.83]
> 7.30 | COc1cc(Cl)c(Oc2cc(NCc3nc4ccccc4[nH]3)nc(N3CCN(c4ccncc4)CC3)n2)cc1OC [Compound 6.95]
> 7.30 | COc1cc(Cl)c(Oc2cc(NCc3nc4ccccc4[nH]3)nc(N3CCCN(C(C)=O)CC3)n2)cc1OC [Compound 6.63]
> 7.30 | COc1cc(Cl)c(Oc2cc(NCc3nc4ccccc4[nH]3)nc(N3CCN(CCn4ccnc4)CC3)n2)cc1OC [Compound 6.113]
> 7.30 | COc1ccc(Oc2cc(NCc3nc4ccccc4[nH]3)nc(N3CCN(C(=O)N(C)C)CC3)n2)c(Cl)c1 [Compound 6.49]

Continued, compound first:

SMILES | pIC50
COc1ccc(Oc2cc(N3CC(C)NC(C)C3)nc(NCc3nc4ccccc4[nH]3)n2)c(Cl)c1 (stereo not drawn) [Compound 5.26] | > 7.30
CC1CN(c2cc(Oc3ccc(Cl)cc3Cl)nc(NCc3nc4ccccc4[nH]3)n2)CC(C)N1 (stereo not drawn) [Compound 5.28] | > 7.30
COc1ccc(Oc2cc(N3CCN(C(=O)c4ccco4)CC3)nc(NCc3nc4ccccc4[nH]3)n2)c(Cl)c1 [Compound 5.50] | > 7.30
COc1ccc(Oc2cc(N3CCOCC3)nc(NCc3nc4ccccc4[nH]3)n2)c(Cl)c1 [Compound 5.07] | > 7.30
COc1ccc(Oc2cc(N3CCCC3CO)nc(NCc3nc4ccccc4[nH]3)n2)c(Cl)c1 (stereo not drawn) [Compound 5.51] | > 7.30

System: S. aureus
Experiment: Antibacterial activity, minimal inhibitory concentration (MIC) against S. aureus
Assay type: cell-based
Conditions: Staphylococcus aureus
Text: Antibacterial activity as measured by the minimal inhibitory concentrations (MIC) and minimal bactericidal concentrations of compounds are well known (see., e.g., National Committee for Clinical Laboratory Standards 2000 Performance standards for antimicrobial disk susceptibility tests: approved standard, 7th ed. M2-A7, vol. 20, no. 1, Committee for Clinical Laboratory Standards, Wayne, Pa.)
In vitro testing for antibacterial activity may be accomplished through use of a whole-cell bacterial growth inhibition assay. For example, an […] assay identifies a substance that inhibits bacterial growth. Microtiter plates are prepared with serial dilutions of the test compound, adding to the preparation a given amount of growth substrate, and providing a preparation of bacteria. Inhibition of bacterial growth is determined, for example, by observing changes in optical densities of the bacterial cultures. Inhibition of bacterial growth is determined, for example, by comparing (in the presence and absence of a test compound) the rate of growth or the absolute growth of bacterial cells. Inhibition includes a reduction of one of the above measurements by at least 20%.

MIC | SMILES
≤ 8 µg/mL | COc1cc(Cl)c(Oc2cc(NCc3nc4ccccc4[nH]3)nc(N3CCN(CCCN4CCOCC4)CC3)n2)cc1OC [Compound 6.94]
≤ 8 µg/mL | COc1ccc(Oc2cc(NNc3cc(=O)c4ccccc4[nH]3)nc(N(C)C)n2)c(Cl)c1 [Compound 6.06]
≤ 8 µg/mL | COc1cc(Cl)c(Oc2cc(NCc3nc4ccccc4[nH]3)nc(N3CCNC(=O)C3)n2)cc1OC [Compound 6.56]
≤ 8 µg/mL | CCN(C(C)=O)C1CCN(c2nc(NCc3nc4ccccc4[nH]3)cc(Oc3ccc(OC)cc3Cl)n2)C1 (stereo not drawn) [Compound 6.62]
≤ 8 µg/mL | COc1cc(Cl)c(Oc2cc(NCc3nc4ccccc4[nH]3)nc(N3CCN(c4nccs4)CC3)n2)cc1OC [Compound 6.107]
≤ 8 µg/mL | CC(=O)N1CCN(c2nc(NCc3nc4ccccc4[nH]3)cc(Oc3ccc4ncccc4c3Cl)n2)CC1 [Compound 6.150]
≤ 8 µg/mL | COc1cc(Cl)c(Oc2cc(NCc3nc4ccccc4[nH]3)nc(N3CCN(c4cnccn4)CC3)n2)cc1OC [Compound 6.93]
≤ 8 µg/mL | O=C1CN(c2nc(NCc3nc4ccccc4[nH]3)cc(Oc3ccc(Cl)cc3Cl)n2)CCN1 [Compound 6.23]
≤ 8 µg/mL | COc1ccc(Oc2cc(NCc3nc4ccccc4[nH]3)nc(N3CCN(C(=O)C4CC4)CC3)n2)c(Cl)c1 [Compound 6.48]
≤ 8 µg/mL | COc1cc(Cl)c(Oc2cc(NCc3nc4ccccc4[nH]3)nc(N3CCN(C(=O)N(C)C)CC3)n2)cc1OC [Compound 6.89]
≤ 8 µg/mL | COc1cc(Cl)c(Oc2cc(NCc3nc4ccccc4[nH]3)nc(N(C)C)n2)cc1OC [Compound 6.83]
≤ 8 µg/mL | COc1cc(Cl)c(Oc2cc(NCc3nc4ccccc4[nH]3)nc(N3CCN(c4ccncc4)CC3)n2)cc1OC [Compound 6.95]
≤ 8 µg/mL | COc1cc(Cl)c(Oc2cc(NCc3nc4ccccc4[nH]3)nc(N3CCCN(C(C)=O)CC3)n2)cc1OC [Compound 6.63]
≤ 8 µg/mL | COc1cc(Cl)c(Oc2cc(NCc3nc4ccccc4[nH]3)nc(N3CCN(CCn4ccnc4)CC3)n2)cc1OC [Compound 6.113]
≤ 8 µg/mL | COc1ccc(Oc2cc(NCc3nc4ccccc4[nH]3)nc(N3CCN(C(=O)N(C)C)CC3)n2)c(Cl)c1 [Compound 6.49]

The next lines start with the compound.

SMILES | MIC
COc1ccc(Oc2cc(-n3cnc(C)c3)nc(NCc3nc4ccccc4[nH]3)n2)c(Cl)c1 [Compound 5.53] | ≤ 8 µg/mL
COc1ccc(Oc2cc(N3CC(C)NC(C)C3)nc(NCc3nc4ccccc4[nH]3)n2)c(Cl)c1 (stereo not drawn) [Compound 5.26] | ≤ 8 µg/mL
CC1CN(c2cc(Oc3ccc(Cl)cc3Cl)nc(NCc3nc4ccccc4[nH]3)n2)CC(C)N1 (stereo not drawn) [Compound 5.28] | ≤ 8 µg/mL
COc1ccc(Oc2cc(N3CCC(O)C3)nc(NCc3nc4ccccc4[nH]3)n2)c(Cl)c1 (stereo not drawn) [Compound 5.35] | ≤ 8 µg/mL
COc1ccc(Oc2cc(N3CCN(C(=O)c4ccco4)CC3)nc(NCc3nc4ccccc4[nH]3)n2)c(Cl)c1 [Compound 5.50] | ≤ 8 µg/mL
COc1ccc(Oc2cc(N3CCOCC3)nc(NCc3nc4ccccc4[nH]3)n2)c(Cl)c1 [Compound 5.07] | ≤ 8 µg/mL
COc1ccc(Oc2cc(N3CCCC3CO)nc(NCc3nc4ccccc4[nH]3)n2)c(Cl)c1 (stereo not drawn) [Compound 5.51] | ≤ 8 µg/mL
